Measured values taken from US6232294A, “Neuro-function regulatory agent” (Kabushiki Kaisha Hayashibara Seibutsu Kagaku Kenkyujo, priority 1997, dated 2001).

How the values were obtained:
Acute toxicity test = settings: dose up to about 16 g per kg mouse (maximum challenged), intraperitoneal or oral, observed for a week
Procedure: An adequate amount of "TREHAOSE®" , a crystalline trehalose powder commercialized by Hayashibara Shoji, Inc., Okayama, Japan, was dissolved in physiological saline containing 5 w/w % gum arabic, and the solution was sterilized in usual manner and intraperitoneally injected to ddy-mice, 20-25 g weight, in a group of 10 mice, or orally administered to the mice by using a stomach sonde. […] In parallel similar experiments were conducted using as glycosyl vitamin P "αG HESPERIDIN PA" with a total hesperidin content of 74-78%, d.s.b., a glycosyl hesperidin power commercialized by Hayashibara Shoji, Inc., Okayama, Japan, and "αG RUTIN PS" with a total rutin content of 80-82%, d.s.b., a glycosyl rutin powder commercialized by Hayashibara Shoji, Inc., Okayama, Japan.

[1] = Clinical test in volunteers with chronic fatigue syndrome or slight depression; assay type: in vivo, human; settings: experiment conducted similarly with vitamin P
Procedure: A medical technologist conducted the clinical experiment and 24 hours after the final administration asked the therapeutic effect and the side effects of the volunteers, and also asked the therapeutic effect and side effects of the volunteers on the basis of the relief of feeling of fatigue, malaise, loss of appetite, and insomnia, which were accompanied by the diseases. The therapeutic effect was evaluated based on four ranks; "very effective", "effective", "unchanged",and "worsened". The effectivity was expressed by a percentage of the number of volunteers, who answered "very effective" and "effective", to the total number of volunteers.

Row | Compound | Mortality (Acute toxicity test) | Effect as compared with control (in words) [1]
1 | OC[C@H]1O[C@H](O[C@H]2O[C@H](CO)[C@@H](O)[C@H](O)[C@H]2O)[C@H](O)[C@@H](O)[C@@H]1O [TREHAOSE®, α,α-trehalose] | no mouse died | –
2 | vitamin P | – | no significant effect was found as compared with control
